Data as given in patent US8158811B2, “Unsaturated fatty hydroxy acid derivatives and the dermocosmetologic use thereof” (Pierre Fabre Dermo-Cosmetique, priority 2005, dated 2012).

Tests used:
[1] = test system: murine melanome cell line B16-F10; test: melanin synthesis, colorimetric assay, basal and after α-MSH; format: cell-based; conditions: Mus musculus, alpha MSH 1 μM, read-out: inhibition of alpha MSH activity (melanin increase)
Experimental: The modulating effect of unsaturated fatty hydroxy acid derivatives on melanogenesis was analysed. To do this, measurement of melanin synthesis by colorimetric assay was performed on a murine melanome cell line: line B16-F10.
The effect of products was investigated in a basal situation and after stimulation by α-MSH in order to determine depigmenting capacity.
Levels of extracellular and intracellular melanin were measured by spectrophotometry at a wavelength of 405 nm according to the protocol described by Anob et al., 1999. The amount of pigment was determined using a standard melanin range and analysis on Microwin software (Berthold Biotechnologies). A total protein assay was carried out for intracellular melanin samples by means of the BCA-Copper method at 540 nm. The standard range was made up using standard protein BSA (Bovine Serum Albumin).

[2] = test system: transglutaminase 1 (TG1); test: keratinocyte differentiation, real-time RT-PCR of transglutaminase 1 transcripts; format: cell-based, human; conditions: NHK, 48 hours
Experimental: (§1) Normal human keratinocytes (NHK) proliferate and differentiate in vitro, forming stratified layers which mimic the basal organisation of the skin. Extracellular calcium concentrations in excess of 0.1 mM initiate a cascade of genome and non-genome events which take the keratinocytes from a proliferative phase towards a differentiation phase. Keratinocyte differentiation can then be evaluated by studying the expression of several markers such as keratins 1 and 10, transglutaminase 1, desaturase DES2, involucrine, FATP4 and ABCG1 transporters. We therefore evaluated the effect of certain hydroxyalcene carboxylic acids in an in vitro culture model.
(§2) Normal human keratinocytes are isolated from skin explants. They are cultured in KSFM medium (Gibco) with a low calcium content (0.1 mM) containing 25 μg/ml of BPE (bovine pituitary extract) and […] of EGF (epithelium growth factor). 24 hours after culturing, differentiation is triggered by the addition of calcium (final concentration 1.2 mM). The active ingredients are added or not at the same time as calcium at concentrations of 100 and 1 μg/ml in order to determine whether or not they have a potentialising effect on differentiation. Cells were then analysed 48 hours after the addition of calcium and these products.
(§3) Total RNA was extracted under cold conditions from keratinocytes.
(§4) After reverse transcription of mRNA into cDNA, PCRs were made up in 96 well plates (iCycler quantitative PCR apparatus, BioRad). Expression of transcripts of transglutaminase, desaturase (DES2), ABCG1 and FATP4 were standardized with respect to the expression of reference genes (GAPDH, UBC, HPRT).

[3] = test system: membrane lipids, fibroblast line L929; test: TBARS test, lipid peroxidation after H2O2/Fe2+/Fe3+; format: cell-based, murin; conditions: 0.02 ng/ml, pretreated 16 hours
Excerpt: In order to evaluate membrane changes, we measured lipid peroxidation by in vitro assay of complexes between the products of lipid oxidation and thiobarbituric acid. These complexes are called TBARS (thiobarbituric acid reactive substances) and give the test its name: TBARS Test.
In order to mimic chemical oxidative stress, we treated a fibroblast line (L929) with a complex consisting of hydrogen peroxide (H2O2) and iron (Fe^2+/Fe^3+) thus reconstituting the Fenton reaction which is the source of oxygenated free radicals and particularly the hydroxyl radical (OH°) (D. A Vessey et al. 1992): H2O2+Fe^2+→OH°+OH^−+Fe^3+
The products were evaluated on a murin fibroblast line L929. Cells were pretreated with different concentrations of the product for 16 hours and were then stimulated with the H2O2/Fe^2+/Fe^3+ complex (200 μM−1 mM) for 1 hour. • Stock solutions: 100 mg/ml ethanol, 4° C. • Final solutions: 0.02 ng/ml.
Peroxidation of membrane lipids was analysed by measuring TBARS (Protocol ref. PLN°2, according to Morliere et al, 1991).
[…]. TBARS assays are therefore expressed in pmole/μg of protein. Proteins and TBARS are assayed in the intracellular medium.
Using the TBARS calculation in pmole/μg protein, we calculated the protective efficacy of various products against the oxidation of lipid membranes.
Four separate experiments were carried out. Several compounds were evaluated in the course of these experiments (the test only allows 10 molecules to be evaluated at one time). The compounds were evaluated several times and were chosen as a function of the results obtained in another test which also measured anti-radical activity (assay test for activated oxygen species).
The model used in this experiment (Fenton reaction) triggers considerable lipid peroxidation of the L929 fibroblasts. This massive release of the hydroxyl radical OH° thus generates oxidative stress in the cells, particularly in the membranes. However, in this type of oxidative reaction, the products resulting from lipid peroxidation are internalized in the cells and TBARS are therefore assayed in the intracellular medium.

[4] = test system: ABCG1; test: keratinocyte differentiation, real-time RT-PCR of ABCG1 transcripts; format: cell-based, human; conditions: NHK, 48 hours
Experimental: as §1, §2, §3, §4

[5] = test system: intracellular AOSs, fibroblast line L929; test: in vitro assay of intracellular AOSs (H2DCF-DA probe) after H2O2/iron oxidative stress; format: cell-based, murin; conditions: Mus musculus, pre-incubation 3 h, L929, read-out: Percentage inhibition of the intracellular production of AOS; for inhibition at 0.0002 µg/mL: 0.2 ng/ml
Excerpt: We set up an in vitro study model of oxidative stress induced by H2O2/iron as H2O2 generates huge amounts of intracellular AOSs as a result of a chain reaction triggered by oxidation of membrane lipids.
This technique is based on the use of a fluorescent probe, 6-carboxy-2′,7′-dichlorodihydro fluorescein diacetate, di (acetoxymethyl ester) (H2DCF-DA) which once it penetrates into the cell is deacetylated by intracellular esterases and thus forms H2DCF. This product is oxidized by intracellular AOSs into a highly fluorescent compound: 2′,7′-dichlorofluorescein (DCF) (Suematsu M et al., 1996, Free Radicals Practical Approach, Punchard ed. P 83-99).
The materials and methods used for in vitro assay of intracellular AOSs are given below. • a) Cell tool • Cutaneous murin fibroblast cell line L929. • b) Materials • 96 well flat based microplate. • Cytofluor II cytofluorameter: Ref. PERCEPTIVE BIOSYSTEMS. • c) Reagents • Cell culture reagents: • Dulbecco's Modified Eagle Medium as the culture medium (DMEM) • Foetal calf serum • Phosphate buffer PBS pH 7.4 • Trypsin EDTA (1X) Fluorescent probe • 6-carboxy-2′,7′-dichlorodihydrofluorescein diacetate, di(acetoxymethyl ester) (PM.675,43) Cell stimulation products • Hydrogen peroxide (H2O2) 3% Ref. GIFRER (Gifrer Barbezat Laboratory) • Ferrous ammonium sulphate (Fe^2+) • Ferric ammonium sulphate (Fe^3+) • d) Products tested:
For the evaluation of unsaturated fatty hydroxy acid derivatives, the dilutions are prepared in freshly prepared culture medium for a concentration range of 0.02, 0.2, 2 and 20 ng/ml. • e) Protocol. Cell culturing.
Cells from the fibroblast line L929 were cultured in 96-well flat base microplates in 100 μl of DMEM supplemented with 10% foetal calf serum. These were incubated overnight at 37° C. in a humid atmosphere at 5% CO2. The blank plate without cells was evaluated using 6 wells.
Dilutions of the products to be tested and reference molecule were made up in culture medium without foetal calf serum then deposited in 7 wells at a rate of 100 μl per well.
Cells were then incubated for 3 hours at 37° C. in a humid atmosphere at 5% CO2.
Cells were rinsed in PBS 1X at a rate of 100 μl per well. They were then incubated for 30 minutes at 37° C. in a humid atmosphere at 5% CO2 with 50 μl of the H2DCF-DA probe at 5 μM.
After 30 minutes of contact with the probe alone, cells were incubated for 30 minutes at 37° C. in a humid atmosphere at 5% CO2 with the addition of 25 μl of H2O2 at 800 μM and 25 μl of ferrous iron and ferric iron solution at 8 mM in order to obtain final concentrations of 200 μM of H2O2 and 2 mM of ferrous iron and ferric iron.
Cells were then rinsed with PBS 1X at a rate of 100 μl per well then incubated for 30 minutes at 37° C. in a humid atmosphere at 5% CO2 with 100 μl of PBS 1X.
This incubation for 1 h 30 minutes at 37° C. allows intracellular esterases to deacetylate the probe into H2DCF which can be oxidized by the intracellular AOSs into DCF: a fluorescent compound whose formation is proportional to the quantity of intracellular AOSs.
The intensity of fluorescence is read on a cytofluorimeter at λexcitation=485 nm and λemission=530 nm. This reflects the amount of intracellular AOS produced.
The ratio below makes it possible to calculate the % protection against the production of intracellular AOSs for each product concentration tested (because the intensity of fluorescence or IF reflects the release of intracellular AOSs)
• Pre-incubation: 3 h • Number of tests=3 for all compounds. • Number of tests=18 for vit. E

[6] = test system: desaturase DES2; test: keratinocyte differentiation, real-time RT-PCR of DES2 transcripts; format: cell-based, human; conditions: NHK, 48 hours
Experimental: as §1, §2, §3, §4

[7] = test system: FATP4; test: keratinocyte differentiation, real-time RT-PCR of FATP4 transcripts; format: cell-based, human; conditions: NHK, 48 hours
Experimental: as §1, §2, §3, §4

[8] = test system: prostaglandin 6KF1α; test: production of prostaglandin 6KF1α by keratinocytes stimulated with calcium ionophore A23187 (ELISA); format: cell-based; conditions: 3 μg/ml, A23187 1 μm 5 hours
Experimental: A suspension of keratinocytes in DMEM 10% foetal calf serum was divided into 6 well plates (1.2. 106cells/wells) and incubated for 16 hours at 37° C. in a 5% CO2 atmosphere. The keratinocytes were then rinsed with PBS in order to eliminate non adhering cells then exposed to the products to be tested included in DMEM without foetal calf serum (which could interfere with the assay).
The concentration tested in culture was 3 μg/ml. This was retained as the test concentration after a preliminary evaluation test for cytotoxicity (neutral red) and is not cytotoxic.
For each treatment, three wells were tested. Cells were pre-incubated for 60 minutes with the products to be tested then a stimulating agent was added to stimulate the arachidonic acid cascade (calcium ionophore) which was added for 5 hours: calcium ionophore A23187 was used at a concentration of 1 μm.
After 5 hours in culture, the culture medium for each well was recovered, centrifuged at 3000 rpm and stored at −80° C.
The production of prostaglandin 6KF1α for each of the tests was measured using a EUROMEDEX Elisa Kit.
Results are expressed as the percentage activity/stimulated control.

[9] = test system: Interleukin 8; test: release of Interleukin 8 by keratinocytes NHK stimulated with PMA + calcium ionophore A23187 (ELISA); format: cell-based, human; conditions: 3 μg/ml, keratinocytes, PMA + A23187 6 hours
Experimental: In this study, carried out using 96 well plates, we evaluated the activity of hydroxyl alkine acids on the production of Interleukin 8 produced in the keratinocytes by phorbol ester PMA and calcium ionophore A23187.
A suspension of keratinocytes in supplemented KSFM was divided between 96 well plates (3.10^4 cells/wells) and incubated for 16 hours at 37° C. under an atmosphere of 5% CO2. The keratinocytes were then rinsed with PBS in order to eliminate non adhering cells then exposed to the products to be tested included in non supplemented KSFM (which could interfere with the assay).
The concentration tested in culture was 3 μg/ml. This was retained after a preliminary test to evaluate cytotoxicity (neutral red) and is not cytotoxic.
3 wells were used for each treatment. Cells were preincubated for 60 minutes with the products to be tested then stimulated, in parallel to negative controls without stimulant: Phorbol Myristate Acetate (PMA) 1 μm+Calcium ionophore (A23187) 0.1 μm.
Incubation for 6 hours at 37° C. in a humid air atmosphere containing 5% CO2.
The culture medium for each of the wells was recovered, centrifuged at 3000 rpm and stored at −80° C.
Cytokine assay: IL8 was assayed using the ELISA kit immunoenzyme method (immunotech).
The results are given as percentage activity/stimulated control.
The compounds according to the invention were evaluated in terms of anti-inflammatory activity on the release of Interleukin 8 by human keratinocytes NHK stimulated by phorbol ester PMA+calcium ionophore A23187.

| SMILES | Induction Factor vs Control (CaCl2 1.2 mM) TG1 ([2]; 1 μg/ml) | Induction Factor vs Control (CaCl2 1.2 mM) TG1 ([2]; 100 μg/ml) | % membrane lipid protection, Mean [3] | Induction Factor vs Control (CaCl2 1.2 mM) ABCG1 ([4]; 1 μg/ml) | Induction Factor vs Control (CaCl2 1.2 mM) ABCG1 ([4]; 100 μg/ml) | inhibition at 0.0002 µg/mL [5] | Induction Factor vs Control (CaCl2 1.2 mM) DES2 ([6]; 1 μg/ml) | Induction Factor vs Control (CaCl2 1.2 mM) DES2 ([6]; 100 μg/ml) | Induction Factor vs Control (CaCl2 1.2 mM) FATP4 ([7]; 1 μg/ml) | Induction Factor vs Control (CaCl2 1.2 mM) FATP4 ([7]; 100 μg/ml) | % inhibiting activity of evaluated molecules on the production of PG6KF1α Inflammation [8] | % inhibition of IL-8 release [9] | further results |
| --- | --- | --- | --- | --- | --- | --- | --- | --- | --- | --- | --- | --- | --- |
| Oc1ccc(O)cc1 [hydroquinone] |  |  |  |  |  |  |  |  |  |  |  |  | inhibition at 1 µg/mL ([1]; 1 μg/ml): 60% |
| O=C(O)C(F)=CCCCCCCCO [n=6, R=H, Rn=H, R1=F, 10-hydroxy-dec-2-fluoro-2 enoic acid] | 1.2 | 7.8 | 40.65% | 1.3 | 6.3 | 4% | 1.3 | 10.3 | 1.0 | 1.9 |  |  | inhibition at 20 pg/mL ([5]; 0.02 ng/ml): 15%; inhibition at 0.002 µg/mL ([5]; 2 ng/ml): 5%; inhibition at 0.02 µg/mL ([5]; 20 ng/ml): -9% |
| O=C(O)/C=C/CCCCCCCO [n=6, R=H, Rn=H, R1=H, DHA] | 1.1 | 12.3 | 52.91% | 1.9 | 6.6 | 33% | 1.7 | 11.5 | 1.2 | 2.5 |  |  |  |
| O=C(O)C(F)=CCCCCCCCCCO [n=8, R=H, Rn=H, R1=F, 12-hydroxy-dodeca-2-fluoro-2-enoic acid] |  |  |  |  |  |  |  |  |  |  | 44% | Non-active |  |
| O=C(O)/C=C/CCCCCCCCCO [n=8, R=H, Rn=H, R1=H, 12-hydroxy-dodeca-2t-enoic acid] |  |  |  |  |  |  |  |  |  |  | 32% | Non-active |  |
| O=C1O[C@H]([C@@H](O)CO)C(O)=C1O [vitamin C] |  |  |  |  |  |  |  |  |  |  |  |  | inhibition at 40 µg/mL ([1]; 40 μg/ml): 60% |
